Results: ChEMBL document CHEMBL3991601, “The target landscape of clinical kinase drugs” (Science, 2017)
Active and inactive are the calls of the source. Rule as the data show it, for most assays here: actives have a measured Kd and inactives only a lower limit.

Target: Ribosomal protein S6 kinase alpha-6 (Homo sapiens, UniProt Q9UK32)
Also: in the data inactive means no Kd found up to 30 µM.

Chain of Ribosomal protein S6 kinase alpha-6 (Q9UK32 whole entry): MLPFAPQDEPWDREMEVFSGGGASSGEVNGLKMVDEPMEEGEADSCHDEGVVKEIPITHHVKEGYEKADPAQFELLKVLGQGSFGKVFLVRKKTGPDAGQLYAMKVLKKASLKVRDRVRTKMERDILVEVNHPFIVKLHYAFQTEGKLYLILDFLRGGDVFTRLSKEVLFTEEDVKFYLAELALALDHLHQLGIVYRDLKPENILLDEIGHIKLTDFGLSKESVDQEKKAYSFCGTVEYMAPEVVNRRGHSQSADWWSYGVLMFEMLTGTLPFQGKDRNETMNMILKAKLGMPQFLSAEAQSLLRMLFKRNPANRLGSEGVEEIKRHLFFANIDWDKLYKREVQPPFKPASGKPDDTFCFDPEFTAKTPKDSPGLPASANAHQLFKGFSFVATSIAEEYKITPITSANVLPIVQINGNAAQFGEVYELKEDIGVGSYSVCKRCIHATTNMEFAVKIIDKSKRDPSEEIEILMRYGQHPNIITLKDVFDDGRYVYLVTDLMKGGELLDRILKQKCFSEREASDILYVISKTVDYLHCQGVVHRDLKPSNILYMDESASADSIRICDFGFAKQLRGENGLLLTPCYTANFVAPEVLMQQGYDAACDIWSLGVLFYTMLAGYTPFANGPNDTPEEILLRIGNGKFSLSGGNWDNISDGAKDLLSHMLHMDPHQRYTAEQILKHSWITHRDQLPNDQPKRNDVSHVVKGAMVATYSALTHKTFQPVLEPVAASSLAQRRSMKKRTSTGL

**Q.** With Cc1cc(-c2cc(O)ccc2Cl)cc2nnc(Nc3ccc(OCCN4CCCC4)cc3)nc12 as the compound, how does the Kd read?
**A.** > 30 µM (inactive)

**Q.** Which Kd does the source give for CCN1CCN(Cc2ccc(-c3cc4c(N[C@H](C)c5ccccc5)ncnc4[nH]3)cc2)CC1 [AEE-788] here?
**A.** > 30 µM (inactive)

**Q.** With CNS(=O)(=O)Nc1nccc(Cc2c(C)c3ccc(Oc4ncccn4)cc3oc2=O)c1F [AVUTOMETINIB] as the compound, how does the Kd read?
**A.** > 30 µM (inactive)

**Q.** COc1cc(CCc2cc(NC(=O)c3ccc(N4C[C@@H](C)N[C@@H](C)C4)cc3)n[nH]2)cc(OC)c1 [AZD-4547] was tested. Which Kd did it give?
**A.** > 30 µM (inactive)

Target: Casein kinase I isoform gamma-1 (Homo sapiens, UniProt Q9HCP0)
Sequence (Q9HCP0 whole entry, canonical isoform): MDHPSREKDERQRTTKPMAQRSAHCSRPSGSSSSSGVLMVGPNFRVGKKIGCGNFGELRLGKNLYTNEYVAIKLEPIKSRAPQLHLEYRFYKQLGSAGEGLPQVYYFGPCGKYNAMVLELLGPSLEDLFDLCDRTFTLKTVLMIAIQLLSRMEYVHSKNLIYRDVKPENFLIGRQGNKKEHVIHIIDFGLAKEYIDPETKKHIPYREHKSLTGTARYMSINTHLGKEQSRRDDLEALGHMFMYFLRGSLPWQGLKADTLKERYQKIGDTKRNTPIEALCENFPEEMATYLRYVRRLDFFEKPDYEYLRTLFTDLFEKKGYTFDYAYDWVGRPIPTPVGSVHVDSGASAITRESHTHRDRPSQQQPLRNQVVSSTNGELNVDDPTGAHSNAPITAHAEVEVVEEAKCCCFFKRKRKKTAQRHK

**Q.** How did the Kd turn out when Cc1cc(-c2cc(O)ccc2Cl)cc2nnc(Nc3ccc(OCCN4CCCC4)cc3)nc12 was run?
**A.** > 30 µM (inactive)

**Q.** With CCN1CCN(Cc2ccc(-c3cc4c(N[C@H](C)c5ccccc5)ncnc4[nH]3)cc2)CC1 [AEE-788] as the compound, how does the Kd read?
**A.** > 30 µM (inactive)

**Q.** For CNS(=O)(=O)Nc1nccc(Cc2c(C)c3ccc(Oc4ncccn4)cc3oc2=O)c1F [AVUTOMETINIB], which Kd is on record?
**A.** > 30 µM (inactive)

**Q.** COc1cc(CCc2cc(NC(=O)c3ccc(N4C[C@@H](C)N[C@@H](C)C4)cc3)n[nH]2)cc(OC)c1 [AZD-4547] was tested. Which Kd did it give?
**A.** > 30 µM (inactive)

Target: T1, dCTP pyrophosphatase 1 (Homo sapiens, UniProt Q9H773)
T1 sequence (Q9H773 whole entry): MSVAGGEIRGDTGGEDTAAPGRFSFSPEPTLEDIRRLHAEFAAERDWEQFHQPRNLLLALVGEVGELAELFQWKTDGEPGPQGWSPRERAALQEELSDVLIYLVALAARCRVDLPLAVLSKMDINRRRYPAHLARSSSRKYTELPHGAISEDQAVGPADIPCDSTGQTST

**Q.** With Cc1cc(-c2cc(O)ccc2Cl)cc2nnc(Nc3ccc(OCCN4CCCC4)cc3)nc12 as the compound, how does the Kd read?
**A.** > 30 µM (inactive)

**Q.** With CCN1CCN(Cc2ccc(-c3cc4c(N[C@H](C)c5ccccc5)ncnc4[nH]3)cc2)CC1 [AEE-788] as the compound, how does the Kd read?
**A.** > 30 µM (inactive)

**Q.** For CNS(=O)(=O)Nc1nccc(Cc2c(C)c3ccc(Oc4ncccn4)cc3oc2=O)c1F [AVUTOMETINIB], which Kd is on record?
**A.** > 30 µM (inactive)

**Q.** Which Kd does the source give for COc1cc(CCc2cc(NC(=O)c3ccc(N4C[C@@H](C)N[C@@H](C)C4)cc3)n[nH]2)cc(OC)c1 [AZD-4547] here?
**A.** > 30 µM (inactive)

Target: Casein kinase I isoform alpha (Homo sapiens, UniProt P48729)
Sequence (P48729 whole entry, canonical isoform): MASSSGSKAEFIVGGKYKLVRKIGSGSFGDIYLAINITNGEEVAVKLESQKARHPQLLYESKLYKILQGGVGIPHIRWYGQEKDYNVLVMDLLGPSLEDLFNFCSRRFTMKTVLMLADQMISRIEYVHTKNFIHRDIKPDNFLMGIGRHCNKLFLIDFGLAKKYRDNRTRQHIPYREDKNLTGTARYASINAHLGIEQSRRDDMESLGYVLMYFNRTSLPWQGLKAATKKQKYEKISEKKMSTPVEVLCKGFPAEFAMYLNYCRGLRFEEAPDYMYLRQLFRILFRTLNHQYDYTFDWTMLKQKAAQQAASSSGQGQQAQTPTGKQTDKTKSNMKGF

**Q.** Which Kd does the source give for Cc1cc(-c2cc(O)ccc2Cl)cc2nnc(Nc3ccc(OCCN4CCCC4)cc3)nc12 here?
**A.** > 30 µM (inactive)

**Q.** Which Kd does the source give for CCN1CCN(Cc2ccc(-c3cc4c(N[C@H](C)c5ccccc5)ncnc4[nH]3)cc2)CC1 [AEE-788] here?
**A.** > 30 µM (inactive)

**Q.** How did the Kd turn out when CNS(=O)(=O)Nc1nccc(Cc2c(C)c3ccc(Oc4ncccn4)cc3oc2=O)c1F [AVUTOMETINIB] was run?
**A.** > 30 µM (inactive)

**Q.** COc1cc(CCc2cc(NC(=O)c3ccc(N4C[C@@H](C)N[C@@H](C)C4)cc3)n[nH]2)cc(OC)c1 [AZD-4547] was tested. Which Kd did it give?
**A.** > 30 µM (inactive)

Target: Calcium/calmodulin-dependent protein kinase type II subunit delta (Homo sapiens, UniProt Q13557)
Sequence (Q13557 whole entry): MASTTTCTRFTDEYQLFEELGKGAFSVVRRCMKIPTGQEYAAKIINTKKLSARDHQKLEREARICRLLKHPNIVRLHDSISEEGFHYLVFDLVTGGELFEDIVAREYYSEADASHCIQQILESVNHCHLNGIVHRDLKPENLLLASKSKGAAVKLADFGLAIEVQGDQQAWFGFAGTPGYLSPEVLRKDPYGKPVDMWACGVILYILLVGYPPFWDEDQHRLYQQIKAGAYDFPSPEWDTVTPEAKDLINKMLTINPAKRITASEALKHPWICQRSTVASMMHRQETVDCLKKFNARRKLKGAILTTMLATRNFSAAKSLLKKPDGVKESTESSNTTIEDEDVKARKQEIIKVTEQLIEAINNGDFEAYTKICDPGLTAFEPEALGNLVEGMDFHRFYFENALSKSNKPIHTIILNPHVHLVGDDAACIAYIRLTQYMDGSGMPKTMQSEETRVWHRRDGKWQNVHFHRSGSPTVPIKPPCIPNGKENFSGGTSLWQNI

**Q.** For Cc1cc(-c2cc(O)ccc2Cl)cc2nnc(Nc3ccc(OCCN4CCCC4)cc3)nc12, which Kd is on record?
**A.** > 30 µM (inactive)

**Q.** For CCN1CCN(Cc2ccc(-c3cc4c(N[C@H](C)c5ccccc5)ncnc4[nH]3)cc2)CC1 [AEE-788], which Kd is on record?
**A.** > 30 µM (inactive)

**Q.** With CNS(=O)(=O)Nc1nccc(Cc2c(C)c3ccc(Oc4ncccn4)cc3oc2=O)c1F [AVUTOMETINIB] as the compound, how does the Kd read?
**A.** > 30 µM (inactive)

**Q.** How did the Kd turn out when COc1cc(CCc2cc(NC(=O)c3ccc(N4C[C@@H](C)N[C@@H](C)C4)cc3)n[nH]2)cc(OC)c1 [AZD-4547] was run?
**A.** > 30 µM (inactive)

Target: Glycogen synthase kinase-3 alpha (Homo sapiens, UniProt P49840)
Sequence (P49840 whole entry): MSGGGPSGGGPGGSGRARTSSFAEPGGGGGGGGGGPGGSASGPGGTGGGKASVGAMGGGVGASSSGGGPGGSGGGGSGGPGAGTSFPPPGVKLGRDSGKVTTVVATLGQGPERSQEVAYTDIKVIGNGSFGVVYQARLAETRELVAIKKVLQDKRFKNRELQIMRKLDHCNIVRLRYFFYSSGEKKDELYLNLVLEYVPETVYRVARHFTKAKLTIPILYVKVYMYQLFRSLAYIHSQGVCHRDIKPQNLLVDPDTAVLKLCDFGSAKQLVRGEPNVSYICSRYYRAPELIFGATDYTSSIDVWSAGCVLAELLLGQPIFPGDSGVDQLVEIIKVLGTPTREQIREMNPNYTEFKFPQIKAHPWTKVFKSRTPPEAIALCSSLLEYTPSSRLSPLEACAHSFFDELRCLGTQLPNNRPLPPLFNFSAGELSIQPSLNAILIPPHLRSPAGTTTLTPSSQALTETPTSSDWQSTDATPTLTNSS

**Q.** With Cc1cc(-c2cc(O)ccc2Cl)cc2nnc(Nc3ccc(OCCN4CCCC4)cc3)nc12 as the compound, how does the Kd read?
**A.** > 30 µM (inactive)

**Q.** For CCN1CCN(Cc2ccc(-c3cc4c(N[C@H](C)c5ccccc5)ncnc4[nH]3)cc2)CC1 [AEE-788], which Kd is on record?
**A.** > 30 µM (inactive)

**Q.** Which Kd does the source give for CNS(=O)(=O)Nc1nccc(Cc2c(C)c3ccc(Oc4ncccn4)cc3oc2=O)c1F [AVUTOMETINIB] here?
**A.** > 30 µM (inactive)

**Q.** COc1cc(CCc2cc(NC(=O)c3ccc(N4C[C@@H](C)N[C@@H](C)C4)cc3)n[nH]2)cc(OC)c1 [AZD-4547] was tested. Which Kd did it give?
**A.** > 30 µM (inactive)

Target: T2, Discoidin domain-containing receptor 2 (Homo sapiens, UniProt Q16832)
T2 sequence (Q16832 whole entry): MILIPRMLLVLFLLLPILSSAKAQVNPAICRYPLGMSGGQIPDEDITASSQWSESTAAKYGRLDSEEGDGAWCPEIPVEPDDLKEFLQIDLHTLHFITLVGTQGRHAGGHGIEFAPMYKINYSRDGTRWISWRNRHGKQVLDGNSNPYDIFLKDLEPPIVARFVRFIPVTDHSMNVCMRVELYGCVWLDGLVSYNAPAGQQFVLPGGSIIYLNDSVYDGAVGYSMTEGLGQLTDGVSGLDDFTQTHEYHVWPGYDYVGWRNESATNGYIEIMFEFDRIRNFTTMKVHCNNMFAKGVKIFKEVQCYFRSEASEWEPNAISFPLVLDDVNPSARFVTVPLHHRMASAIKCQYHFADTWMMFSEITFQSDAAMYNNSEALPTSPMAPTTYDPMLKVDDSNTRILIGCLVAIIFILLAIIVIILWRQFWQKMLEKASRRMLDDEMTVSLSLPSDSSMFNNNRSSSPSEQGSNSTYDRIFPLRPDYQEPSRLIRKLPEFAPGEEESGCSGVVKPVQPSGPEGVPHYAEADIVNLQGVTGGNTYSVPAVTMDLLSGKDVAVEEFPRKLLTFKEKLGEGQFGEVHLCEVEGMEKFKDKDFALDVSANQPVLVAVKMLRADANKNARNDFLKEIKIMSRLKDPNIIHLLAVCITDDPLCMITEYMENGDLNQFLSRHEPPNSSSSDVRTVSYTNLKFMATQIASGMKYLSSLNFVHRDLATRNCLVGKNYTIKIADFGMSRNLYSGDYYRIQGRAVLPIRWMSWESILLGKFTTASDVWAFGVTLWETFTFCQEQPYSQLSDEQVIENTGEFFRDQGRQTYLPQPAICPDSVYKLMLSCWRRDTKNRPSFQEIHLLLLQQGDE

**Q.** For Cc1cc(-c2cc(O)ccc2Cl)cc2nnc(Nc3ccc(OCCN4CCCC4)cc3)nc12, which Kd is on record?
**A.** 0.004 µM (active)

**Q.** CCN1CCN(Cc2ccc(-c3cc4c(N[C@H](C)c5ccccc5)ncnc4[nH]3)cc2)CC1 [AEE-788] was tested. Which Kd did it give?
**A.** 28.2 µM (active)

**Q.** Which Kd does the source give for CNS(=O)(=O)Nc1nccc(Cc2c(C)c3ccc(Oc4ncccn4)cc3oc2=O)c1F [AVUTOMETINIB] here?
**A.** > 30 µM (inactive)

**Q.** For COc1cc(CCc2cc(NC(=O)c3ccc(N4C[C@@H](C)N[C@@H](C)C4)cc3)n[nH]2)cc(OC)c1 [AZD-4547], which Kd is on record?
**A.** 12.9 µM (active)

Target: T3, Serine/threonine-protein kinase TAO3 (Homo sapiens, UniProt Q9H2K8)
T3 sequence (Q9H2K8 whole entry): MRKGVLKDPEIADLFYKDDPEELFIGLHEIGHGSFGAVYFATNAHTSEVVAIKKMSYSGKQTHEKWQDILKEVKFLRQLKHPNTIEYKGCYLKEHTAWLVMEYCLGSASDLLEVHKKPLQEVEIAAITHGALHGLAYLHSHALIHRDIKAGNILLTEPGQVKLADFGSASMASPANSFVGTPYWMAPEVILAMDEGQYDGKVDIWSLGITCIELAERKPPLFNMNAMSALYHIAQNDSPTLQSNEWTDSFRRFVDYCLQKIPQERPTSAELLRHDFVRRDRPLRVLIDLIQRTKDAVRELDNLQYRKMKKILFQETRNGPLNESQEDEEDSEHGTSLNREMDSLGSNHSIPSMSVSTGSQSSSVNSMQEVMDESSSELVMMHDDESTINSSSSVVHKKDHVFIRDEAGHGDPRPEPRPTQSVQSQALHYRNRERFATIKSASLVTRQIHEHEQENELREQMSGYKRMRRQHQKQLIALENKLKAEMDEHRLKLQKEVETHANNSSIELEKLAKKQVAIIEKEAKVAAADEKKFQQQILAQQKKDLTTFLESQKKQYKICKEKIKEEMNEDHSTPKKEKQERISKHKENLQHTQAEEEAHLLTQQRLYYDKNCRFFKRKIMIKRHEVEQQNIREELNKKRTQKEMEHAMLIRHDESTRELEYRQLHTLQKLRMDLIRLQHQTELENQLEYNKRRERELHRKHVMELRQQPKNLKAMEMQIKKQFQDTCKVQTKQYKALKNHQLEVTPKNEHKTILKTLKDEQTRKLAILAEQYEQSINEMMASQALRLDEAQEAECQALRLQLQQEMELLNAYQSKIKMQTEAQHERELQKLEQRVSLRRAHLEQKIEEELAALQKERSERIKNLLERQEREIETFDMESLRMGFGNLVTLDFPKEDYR

**Q.** With Cc1cc(-c2cc(O)ccc2Cl)cc2nnc(Nc3ccc(OCCN4CCCC4)cc3)nc12 as the compound, how does the Kd read?
**A.** > 30 µM (inactive)

**Q.** CCN1CCN(Cc2ccc(-c3cc4c(N[C@H](C)c5ccccc5)ncnc4[nH]3)cc2)CC1 [AEE-788] was tested. Which Kd did it give?
**A.** > 30 µM (inactive)

**Q.** Which Kd does the source give for CNS(=O)(=O)Nc1nccc(Cc2c(C)c3ccc(Oc4ncccn4)cc3oc2=O)c1F [AVUTOMETINIB] here?
**A.** > 30 µM (inactive)

**Q.** How did the Kd turn out when COc1cc(CCc2cc(NC(=O)c3ccc(N4C[C@@H](C)N[C@@H](C)C4)cc3)n[nH]2)cc(OC)c1 [AZD-4547] was run?
**A.** > 30 µM (inactive)

Target: T4, Cysteine--tRNA ligase, cytoplasmic (Homo sapiens, UniProt P49589)
T4 sequence (P49589 whole entry): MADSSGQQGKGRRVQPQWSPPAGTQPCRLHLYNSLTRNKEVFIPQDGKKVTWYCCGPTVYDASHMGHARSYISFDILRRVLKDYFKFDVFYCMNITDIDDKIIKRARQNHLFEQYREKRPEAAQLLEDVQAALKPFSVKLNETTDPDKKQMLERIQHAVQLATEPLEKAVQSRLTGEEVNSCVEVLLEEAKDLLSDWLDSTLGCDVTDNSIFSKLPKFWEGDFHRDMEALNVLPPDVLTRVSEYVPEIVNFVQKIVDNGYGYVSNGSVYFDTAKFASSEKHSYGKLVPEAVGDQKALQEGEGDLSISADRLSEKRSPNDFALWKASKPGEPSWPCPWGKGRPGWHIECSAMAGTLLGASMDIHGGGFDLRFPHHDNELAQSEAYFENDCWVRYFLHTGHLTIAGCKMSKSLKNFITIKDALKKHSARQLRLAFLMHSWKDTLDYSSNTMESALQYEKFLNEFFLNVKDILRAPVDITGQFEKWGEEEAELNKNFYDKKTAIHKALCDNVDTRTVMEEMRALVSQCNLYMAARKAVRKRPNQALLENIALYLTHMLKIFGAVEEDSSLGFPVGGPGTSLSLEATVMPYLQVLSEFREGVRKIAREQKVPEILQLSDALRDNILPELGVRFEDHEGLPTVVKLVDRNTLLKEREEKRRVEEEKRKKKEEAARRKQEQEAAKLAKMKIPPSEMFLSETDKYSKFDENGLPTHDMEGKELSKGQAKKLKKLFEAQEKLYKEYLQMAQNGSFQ

**Q.** Which Kd does the source give for Cc1cc(-c2cc(O)ccc2Cl)cc2nnc(Nc3ccc(OCCN4CCCC4)cc3)nc12 here?
**A.** > 30 µM (inactive)

**Q.** CCN1CCN(Cc2ccc(-c3cc4c(N[C@H](C)c5ccccc5)ncnc4[nH]3)cc2)CC1 [AEE-788] was tested. Which Kd did it give?
**A.** > 30 µM (inactive)

**Q.** For CNS(=O)(=O)Nc1nccc(Cc2c(C)c3ccc(Oc4ncccn4)cc3oc2=O)c1F [AVUTOMETINIB], which Kd is on record?
**A.** > 30 µM (inactive)

**Q.** With COc1cc(CCc2cc(NC(=O)c3ccc(N4C[C@@H](C)N[C@@H](C)C4)cc3)n[nH]2)cc(OC)c1 [AZD-4547] as the compound, how does the Kd read?
**A.** > 30 µM (inactive)
